From patent US20060069132A1, “Azolecarboxamide herbicides” (priority 2004, published 2006)

Columns and labels:
barnyardgrass [1] = experiment: Test B pre-/postemergence herbicide test; format: in vivo, Echinochloa crus-galli
Summary of the method: (§1)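 Greenhouse pot assay with simultaneous preemergence (treated seed) and postemergence (2–18 cm seedlings) applications of surfactant-containing, non-phytotoxic solvent formulations. Response scored visually 13–15 days later on a 0–100 scale, 100 meaning complete control.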

Surinam grass = experiment: Test B pre-/postemergence herbicide test; format: in vivo, Urochloa decumbens; conditions: for Surinam Grass plant response rating: postemergence, visual rating
Summary of the method: (§2)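 Herbicidal effect was judged by eye on a 0–100 scale after plants stood 13 to 15 days in the greenhouse following pre- or postemergence treatment with surfactant-containing formulations.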

cocklebur = experiment: Test B pre-/postemergence herbicide test; format: in vivo, Xanthium strumarium
Summary of the method: as §1

corn = experiment: Test B pre-/postemergence herbicide test; format: in vivo, Zea mays
Summary of the method: as §2

large crabgrass = experiment: Test B pre-/postemergence herbicide test; format: in vivo, Digitaria sanguinalis
Summary of the method: as §2

giant foxtail = experiment: Test B pre-/postemergence herbicide test; format: in vivo, Setaria faberi
Summary of the method: as §2

lambsquarters = experiment: Test B pre-/postemergence herbicide test; format: in vivo, Chenopodium album; conditions: for Lambsquarters plant response rating: postemergence, visual rating
Summary of the method: as §2

morningglory = experiment: Test B pre-/postemergence herbicide test; format: in vivo, Ipomoea coccinea; conditions: for Morningglory plant response rating: postemergence, visual rating
Summary of the method: as §1

pigweed = experiment: Test B pre-/postemergence herbicide test; format: in vivo, Amaranthus retroflexus; conditions: for Pigweed plant response rating: postemergence, visual rating
Summary of the method: as §2

rice [2] = experiment: Test B pre-/postemergence herbicide test; format: in vivo, Oryza sativa; conditions: preemergence
Summary of the method: as §2

velvetleaf = experiment: Test B pre-/postemergence herbicide test; format: in vivo, Abutilon theophrasti; conditions: for Velvetleaf plant response rating: postemergence, visual rating
Summary of the method: as §2

blackgrass = experiment: Test B postemergence herbicide test; format: in vivo, Alopecurus myosuroides; conditions: scale 0 (no effect) to 100 (complete control); for Blackgrass plant response rating: postemergence, visual rating
Summary of the method: (§3)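 Greenhouse test; postemergence application to plants at 1–4 leaves (2–18 cm); paddy species at 2 leaves; evaluated visually vs controls at 13–15 days; scale 0–100 (100 = complete control).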

wheat = experiment: Test B postemergence herbicide test; format: in vivo, Triticum aestivum; parameters: key to Wheat plant response rating: 0 = no effect, 100 = complete control; conditions: scale 0 (no effect) to 100 (complete control); for Wheat plant response rating: postemergence, visual rating
Summary of the method: (§4)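 Scale 0–100: zero equals no visible effect, 100 complete control, judged by eye relative to controls. Timing: 13 to 15 days in greenhouse post-treatment. Growth stage at spraying: two leaves (paddy) or one to four leaves, 2–18 cm (postemergence).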

wild oat = experiment: Test B postemergence herbicide test; format: in vivo, Avena fatua; conditions: scale 0 (no effect) to 100 (complete control); for Oat, Wild plant response rating: postemergence, visual rating
Summary of the method: as §4

rice [3] = experiment: Test B flooded paddy test; format: in vivo, Oryza sativa; conditions: 1000 g ai/ha, visual rating, scale 0 to 100 (0 no effect, 100 complete control), 13 to 15 days
Summary of the method: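 Treated at 2-leaf (paddy) or 1–4-leaf, 2–18 cm (postemergence); greenhouse 13–15 d; visual score vs control, 0 none to 100 complete control; dash = not tested.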

[4] = system: small flower umbrella sedge; experiment: Test B flooded paddy test; format: in vivo, Cyperus difformis; conditions: 1000 g ai/ha, visual rating, scale 0 to 100 (0 no effect, 100 complete control), 13 to 15 days
Summary of the method: as §3

ducksalad [5] = experiment: Test B flooded paddy test; format: in vivo, Heteranthera limosa; conditions: 1000 g ai/ha, visual rating, scale 0 to 100 (0 no effect, 100 complete control), 13 to 15 days
Summary of the method: as §3

barnyardgrass [6] = experiment: Test B flooded paddy test; format: in vivo, Echinochloa crus-galli; conditions: 1000 g ai/ha, visual rating, scale 0 to 100 (0 no effect, 100 complete control), 13 to 15 days
Summary of the method: as §3

rice [7] = experiment: Test C flooded paddy test; format: in vivo, Oryza sativa; conditions: for Plant response rating, Rice: 500 g ai/ha, visual rating after 12 to 14 days
Summary of the method: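 Postemergence sprays applied to plants 2 to 18 cm tall (1- to 4-leaf stage); paddy species grown to 2-leaf stage under flooding. After 12 to 14 days in greenhouse, visual rating versus untreated controls on 0–100 scale (0 no effect, 100 complete control).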

[8] = system: smallflower umbrella sedge; experiment: Test C flooded paddy test; format: in vivo, Cyperus difformis; conditions: for Plant response rating, Sedge, Umbrella: 500 g ai/ha, visual rating after 12 to 14 days
ducksalad [9] = experiment: Test C flooded paddy test; format: in vivo, Heteranthera limosa; conditions: for Plant response rating, Ducksalad: 500 g ai/ha, visual rating after 12 to 14 days
barnyardgrass [10] = experiment: Test C flooded paddy test; format: in vivo, Echinochloa crus-galli; conditions: for Plant response rating, Barnyardgrass: 500 g ai/ha, visual rating after 12 to 14 days
Summary of the method: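 Scoring by eye, 12–14 days post-treatment, greenhouse-held plants vs. controls; 0 no effect, 100 complete control. Sprayed at 1–4 leaves (2–18 cm); paddy barnyardgrass at 2 leaves, flooded.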

[11] = 125 g ai/ha, 0 = no effect, 100 = complete control, preemergence
[12] = 500 g ai/ha, visual rating 0-100, 0 no effect, 100 complete control, preemergence
[13] = postemergence, 125 g ai/ha, visual rating, scale 0 (no effect) to 100 (complete control)
[14] = postemergence, 500 g ai/ha, visual rating, scale 0 (no effect) to 100 (complete control)
[15] = 125 g ai/ha, scale 0 (no effect) to 100 (complete control)
[16] = 500 g ai/ha, scale 0 (no effect) to 100 (complete control)
[17] = 62 g ai/ha, scale 0 to 100 (0 no effect, 100 complete control)
[18] = 125 g ai/ha, scale 0 to 100 (0 no effect, 100 complete control)
[19] = 250 g ai/ha, scale of 0 to 100, 0 is no effect, 100 is complete control
[20] = scale 0 to 100 (0 no effect, 100 complete control)
[21] = Postemergence, 500 g ai/ha, visual rating after 13 to 15 days, scale 0 (no effect) to 100 (complete control)
[22] = Preemergence, 500 g ai/ha, scale 0 to 100
[23] = preemergence, 125 g ai/ha, 0 to 100 scale, 0 is no effect, 100 is complete control
[24] = Postemergence, 500 g ai/ha, visual rating after 13 to 15 days
[25] = 125 g ai/ha, scale of 0 to 100, 0 is no effect, 100 is complete control

CCc1nn(C(C)(C)C)cc1C(=O)Nc1cc(C(=O)NC)ccc1F [Compound 194]
80: Plant response rating, Foxtail, Giant (giant foxtail; [12]) | Sedge, Umbrella plant response rating [4]
60: Plant response rating, Surinam Grass (Surinam grass; [12]) | Plant response rating, Velvetleaf (velvetleaf; [12]) | Rice plant response rating (rice [3])
50: Plant response rating, Corn (corn; [12]) | Plant response rating, Morningglory (morningglory; [12]) | Barnyardgrass plant response rating (barnyardgrass [6])
30: Lambsquarters plant response rating (0 to 100 scale) (lambsquarters; [11]) | Lambsquarters plant response rating (lambsquarters; [16]) | Pigweed plant response rating (pigweed; [16])
70: Plant response rating, Rice (rice [2]; 500 g ai/ha, visual rating 0-100, 0 no effect, 100 complete control)
20: Plant response rating, Cocklebur (cocklebur; [12]) | Morningglory plant response rating (0 to 100 scale) (morningglory; [11]) | Pigweed plant response rating (pigweed; [15]) | Velvetleaf plant response rating (0 to 100 scale) (velvetleaf; [11])
45: Plant response rating, Rice (rice [7]; [20])
0: Barnyardgrass plant response rating (0 to 100 scale) (barnyardgrass [1]; [11]) | Barnyardgrass plant response rating (barnyardgrass [1]; [13]) | Surinam Grass plant response rating (0 to 100 scale) (Surinam grass; [11]) | Cocklebur plant response rating (0 to 100 scale) (cocklebur; [11]) | Corn plant response rating (0 to 100 scale) (corn; [11]) | Corn plant response rating (corn; [13]) | Corn plant response rating (corn; [14]) | Foxtail, Giant plant response rating (giant foxtail; [13]) | Foxtail, Giant plant response rating (giant foxtail; [14]) | Pigweed plant response rating (0 to 100 scale) (pigweed; [11]) | Rice plant response rating (0 to 100 scale) (rice [2]; 125 g ai/ha, 0 = no effect, 100 = complete control) | Blackgrass plant response rating (blackgrass; 125 g ai/ha) | Blackgrass plant response rating (blackgrass; 500 g ai/ha) | Wheat plant response rating (wheat; 125 g ai/ha) | Wheat plant response rating (wheat; 500 g ai/ha) | Oat, Wild plant response rating (wild oat; 125 g ai/ha) | Oat, Wild plant response rating (wild oat; 500 g ai/ha) | Rice plant response rating (rice [7]; [17]) | Sedge, Umbrella plant response rating [8, 17] | Sedge, Umbrella plant response rating [8, 18] | Ducksalad plant response rating (ducksalad [9]; [17]) | Ducksalad plant response rating (ducksalad [9]; [18]) | Ducksalad plant response rating (ducksalad [9]; [19]) | Barnyardgrass plant response rating (barnyardgrass [10]; [17]) | Barnyardgrass plant response rating (barnyardgrass [10]; [18]) | Barnyardgrass plant response rating (barnyardgrass [10]; [19])
100: Crabgrass, Large plant response rating (0 to 100 scale) (large crabgrass; [11]) | Plant response rating, Crabgrass, Large (large crabgrass; [12]) | Plant response rating, Pigweed (pigweed; [12])
10: Barnyardgrass plant response rating (barnyardgrass [1]; [14]) | Surinam Grass plant response rating (Surinam grass; [15]) | Surinam Grass plant response rating (Surinam grass; [16]) | Cocklebur plant response rating (cocklebur; [13]) | Cocklebur plant response rating (cocklebur; [14]) | Crabgrass, Large plant response rating (large crabgrass; [13]) | Crabgrass, Large plant response rating (large crabgrass; [14]) | Foxtail, Giant plant response rating (0 to 100 scale) (giant foxtail; [11]) | Morningglory plant response rating (morningglory; [15]) | Morningglory plant response rating (morningglory; [16]) | Velvetleaf plant response rating (velvetleaf; [15]) | Velvetleaf plant response rating (velvetleaf; [16])
25: Rice plant response rating (rice [7]; [18]) | Rice plant response rating (rice [7]; [19]) | Plant response rating, Barnyardgrass (barnyardgrass [10]; [20])
75: Plant response rating, Sedge, Umbrella [8, 20]
40: Plant response rating, Ducksalad (ducksalad [9]; [20])
90: Plant response rating, Barnyardgrass (barnyardgrass [1]; [12]) | Ducksalad plant response rating (ducksalad [5])
35: Sedge, Umbrella plant response rating [8, 19]

CCn1nc(C(C)(C)C)cc1C(=O)Nc1cc(C(=O)OC)c(OC)cc1F [Compound 75]
25: Rice plant response rating (rice [7]; [25]) | Barnyardgrass plant response rating (barnyardgrass [10]; [25])
90: Barnyardgrass plant response rating (barnyardgrass [1]; [22]) | Foxtail, Giant plant response rating (giant foxtail; [22]) | Rice plant response rating (rice [3]) | Ducksalad plant response rating (ducksalad [5])
85: Plant response rating, Sedge, Umbrella [8, 20]
0: Plant response rating, Cocklebur (cocklebur; [23]) | Plant response rating, Corn (corn; [23]) | Plant response rating, Morningglory (morningglory; [23]) | Rice plant response rating (rice [7]; [17]) | Ducksalad plant response rating (ducksalad [9]; [17]) | Barnyardgrass plant response rating (barnyardgrass [10]; [17])
30: Plant response rating, Surinam Grass (Surinam grass; [23]) | Plant response rating, Cocklebur (cocklebur; [21]) | Corn plant response rating (corn; [22]) | Plant response rating, Foxtail, Giant (giant foxtail; [23]) | Plant response rating, Blackgrass (blackgrass; [24]) | Ducksalad plant response rating (ducksalad [9]; [25])
70: Crabgrass, Large plant response rating (large crabgrass; [22]) | Plant response rating, Pigweed (pigweed; [21]) | Sedge, Umbrella plant response rating [4] | Sedge, Umbrella plant response rating [8, 17] | Plant response rating, Ducksalad (ducksalad [9]; [20]) | Plant response rating, Barnyardgrass (barnyardgrass [10]; [20])
65: Plant response rating, Rice (rice [7]; [20]) | Ducksalad plant response rating (ducksalad [9]; [19]) | Barnyardgrass plant response rating (barnyardgrass [10]; [19])
10: Barnyardgrass plant response rating (barnyardgrass [1]; [13]) | Surinam Grass plant response rating (Surinam grass; [15]) | Cocklebur plant response rating (cocklebur; [22]) | Cocklebur plant response rating (cocklebur; [13]) | Corn plant response rating (corn; [13]) | Plant response rating, Crabgrass, Large (large crabgrass; [21]) | Crabgrass, Large plant response rating (large crabgrass; [13]) | Plant response rating, Crabgrass, Large (large crabgrass; [23]) | Blackgrass plant response rating (blackgrass; 125 g ai/ha) | Wheat plant response rating (wheat; 125 g ai/ha) | Oat, Wild plant response rating (wild oat; 125 g ai/ha)
55: Rice plant response rating (rice [7]; [19])
40: Plant response rating, Lambsquarters (lambsquarters; [21]) | Lambsquarters plant response rating (lambsquarters; [15]) | Plant response rating, Rice (rice [2]; 125 g ai/ha, 0 to 100 scale, 0 is no effect, 100 is complete control) | Plant response rating, Oat, Wild (wild oat; [24])
50: Plant response rating, Barnyardgrass (barnyardgrass [1]; [23]) | Plant response rating, Morningglory (morningglory; [21]) | Pigweed plant response rating (pigweed; [15]) | Plant response rating, Pigweed (pigweed; [23])
20: Plant response rating, Barnyardgrass (barnyardgrass [1]; [21]) | Plant response rating, Surinam Grass (Surinam grass; [21]) | Plant response rating, Corn (corn; [21]) | Plant response rating, Foxtail, Giant (giant foxtail; [21]) | Foxtail, Giant plant response rating (giant foxtail; [13]) | Plant response rating, Lambsquarters (lambsquarters; [23]) | Morningglory plant response rating (morningglory; [15]) | Plant response rating, Velvetleaf (velvetleaf; [21]) | Velvetleaf plant response rating (velvetleaf; [15]) | Plant response rating, Velvetleaf (velvetleaf; [23]) | Plant response rating, Wheat (wheat; [24])
75: Sedge, Umbrella plant response rating [8, 25]
80: Barnyardgrass plant response rating (barnyardgrass [6]) | Sedge, Umbrella plant response rating [8, 19]
